Results from US10525269B2, “Methods for improving heart function” (THE JOHNS HOPKINS UNIVERSITY, priority 2010, dated 2020).
Entries after “also recorded” stand apart in the source; their conditions may differ.

How the values were obtained:
cAMP = assay: Membrane-localized cAMP FRET probe (ICUE3) in isolated myocytes; format: cell-based, dog; details: in presence of IBMX
Description: Adult myocytes were infected with an adenovirus expressing either the modified EPAC-based cAMP FRET sensor (ICUE3) (DiPilato et al. (1999) J Biol Chem. 274:22048-22052) or SR-localized PKA activity sensor SR-AKAR3 (Liu et al. (2011) Biochem Biophys Res Commun. 404:581-586). Just before study, cells were washed two times with Hanks' balanced salt solution and imaged at room temperature in the dark. Dual-emission ratio imaging used a 420DF20 excitation filter, a 450DRLP dichroic mirror, and two emission filters (475DF40 for cyan fluorescent protein and 535DF25 for yellow fluorescent protein) and was performed on a Zeiss Axiovert 200 M microscope with a MicroMAX BFT512 cooled charge-coupled device camera (Roper Scientific) controlled by MetaFluor 6.2 software (Universal Imaging). […]
To further clarify the nature of the altered β2-AR signalling, studies were performed in isolated myocytes infected with an adenovirus containing a plasma membrane-targeted adenosine 3′,5′-monophosphate (cAMP)-sensitive fluorescence resonance energy transfer (FRET) probe (ICUE3) based on the EPAC1 (exchange protein directly activated by cAMP 1) binding domain (FIG. 6A; DiPilato et al. (1999) J Biol Chem. 274:22048-22052). […]

PKA = assay: SR-localized PKA activity FRET sensor (SR-AKAR3) in myocytes; format: cell-based, dog
Description: Adult myocytes were infected with an adenovirus expressing either the modified EPAC-based cAMP FRET sensor (ICUE3) (DiPilato et al. (1999) J Biol Chem. 274:22048-22052) or SR-localized PKA activity sensor SR-AKAR3 (Liu et al. (2011) Biochem Biophys Res Commun. 404:581-586). Just before study, cells were washed two times with Hanks' balanced salt solution and imaged at room temperature in the dark. Dual-emission ratio imaging used a 420DF20 excitation filter, a 450DRLP dichroic mirror, and two emission filters (475DF40 for cyan fluorescent protein and 535DF25 for yellow fluorescent protein) and was performed on a Zeiss Axiovert 200 M microscope with a MicroMAX BFT512 cooled charge-coupled device camera (Roper Scientific) controlled by MetaFluor 6.2 software (Universal Imaging). Fluorescent images (taken every 20 to 30 s) were background-corrected by subtracting autofluorescence intensities of untransfected cells (or background with no cells) from the emission intensities of cells expressing reporters.
To further clarify the nature of the altered β2-AR signalling, studies were performed in isolated myocytes infected with an adenovirus containing a plasma membrane-targeted adenosine 3′,5′-monophosphate (cAMP)-sensitive fluorescence resonance energy transfer (FRET) probe (ICUE3) based on the EPAC1 (exchange protein directly activated by cAMP 1) binding domain (FIG. 6A; DiPilato et al. (1999) J Biol Chem. 274:22048-22052). After 24 hours, cells were stimulated with either zinterol or fenoterol, each in the presence of a broad-spectrum phosphodiesterase (PDE) inhibitor, IBMX. […] Previous studies have proposed that reduced Gαi coupling to the β2-AR can modify the targeting of cAMP, resulting in enhanced protein kinase A (PKA) activation of sarcoplasmic reticulum (SR) calcium handling proteins and thus augmentation of the Ca^2+ and associated myocyte shortening (Kuschel et al. (1999) J. Biol. Chem. 274:22048-22052).

isolated myocytes = assay: Myocyte sarcomere shortening and whole-cell calcium transients; format: cell-based, dog; parameters: effect of PTX on zinterol-stimulated shortening and Ca2+ transients: dose or concentration left out as unconfirmed
Protocol: Myocyte sarcomere shortening and whole-cell calcium transients were assessed with an inverted microscope (Ellipse TE2001, Nikon) equipped with an image-fluorescence system (MyoCam, IonOptix).
Adenovirus-mediated gene transfer of GFP, RGS2, or RGS3 was implemented by adding a minimal volume of the FBS-free MEM containing the gene-carrying adenovirus (100 multiplicities of infection). The full volume of FBS-free MEM was supplied after culture for another 1 to 2 hours. RGS expression and myocyte functional changes were assessed at 24 hours after transfection.

[1] = Pearce (2009); cited from earlier work

CC(C)(Cc1ccccc1)NCC(O)c1ccc(O)c(NS(C)(=O)=O)c1 (stereo not shown) [zinterol]
zinterol-stimulated cAMP increase (FRET ratio) (cAMP; resynchronization models vs other groups incl. control): exceeded that in the other groups; also recorded: greater response
PKA activation at the SR (PKA; CRT cells): activation was detectable; also recorded: showed PKA activation
PKA stimulation detected at the SR (PKA; myocytes from HFdys or HFsyn): negligible PKA stimulation
response to zinterol (isolated myocytes; AVA cells): responded robustly
shortening and Ca2+ transient response to zinterol (isolated myocytes; cells from resynchronized hearts): enhanced responses

CC(C)NCC(O)c1ccc(O)c(O)c1 (stereo not shown) [isoproterenol]
isoproterenol-stimulated shortening, relaxation, and peak calcium (isolated myocytes; AVA myocytes, compared with CRT): similar
isoproterenol-stimulated sarcomere shortening and relengthening, peak Ca2+ transient and decay rate (isolated myocytes; myocytes from HFdys or HFsyn): equally depressed; also recorded: markedly and similarly depressed
isoproterenol-stimulated sarcomere shortening and relengthening, peak Ca2+ transient and decay rate (isolated myocytes; myocytes from resynchronization models (CRT, V3A3)): back to near-control levels; also recorded: returned to control levels

CC(Cc1ccc(O)cc1)NCC(O)c1cc(O)cc(O)c1 (single isomer, unassigned) [fenoterol as a mixture of R,R-enantiomer and S,S-enantiomer, fenoterol]
mortality in asthma use [1]: worsened death

pertussis toxin [PTX]
effect of PTX on zinterol-stimulated functional or Ca2+ response (isolated myocytes; AVA myocytes): not further altered; also recorded: minimal augmentation
effect of PTX pretreatment on isoproterenol-stimulated sarcomere shortening (% SS) and whole-cell calcium transient (isolated myocytes; HFdys and HFsyn): greatly enhanced both behaviors
effect of PTX on zinterol-stimulated shortening and Ca2+ transients (isolated myocytes; cells from HFdys and HFsyn): greatly amplified the response; also recorded: marked augmentation
effect of PTX on zinterol-stimulated shortening and Ca2+ transients (isolated myocytes; cells from resynchronized hearts (CRT, V3A3)): little changed
effect of PTX on zinterol-stimulated shortening and Ca2+ transients (isolated myocytes; control myocytes): augmented zinterol-stimulated shortening and Ca^2+ transients slightly
effect of PTX pretreatment on isoproterenol-stimulated sarcomere shortening (% SS) and whole-cell calcium transient (isolated myocytes; resynchronized models): no impact

CC(Cc1ccc(O)cc1)NCC(O)c1cc(O)cc(O)c1 (stereo not shown) [fenoterol]
fenoterol-stimulated cAMP response (FRET ratio) (cAMP; all groups): all responded similarly; also recorded: similarly elevated response
PKA activation at the SR (PKA; cells from all models): PKA activation was detected
PKA activation at the SR (PKA; cells from all models, listed as Fenoterol): stimulated PKA at the SR in all models
fenoterol response compared with zinterol alone (isolated myocytes; HFdys and HFsyn): augmented over zinterol alone
